Data taken from ChEMBL document CHEMBL1201862, “PubChem BioAssay data set” (2004).
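Briefly, cells in 96-well plates were exposed to five compound concentrations for 48 h, and endpoints were estimated by linear interpolation. The concentration for 50% growth inhibition is given as GI50.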 Active and inactive are the calls of the source. Rule as the data show it: active = GI50 up to about 1.1 µM and inactive = higher.

Key:
Test in all cases: growth of human tumour cells (NCI), 48 h
MOLT-4 = test system: MOLT-4
HT-29 = test system: HT-29
NCI-H460 = test system: NCI-H460
UACC-257 = test system: UACC-257
IGROV-1 = test system: IGROV-1
ACHN = test system: ACHN
M14 = test system: M14
EKVX = test system: EKVX
CAKI-1 = test system: CAKI-1
KM12 = test system: KM12
U-251 = test system: U-251
TK-10 = test system: TK-10
A549 = test system: A549
HCC 2998 = test system: HCC 2998
K562 = test system: K562
UACC-62 = test system: UACC-62

Measured: GI50

NC(=O)COC(=O)c1c(Cl)nc2sccn12
inactive: MOLT-4 > 100 µM | HT-29 > 100 µM | NCI-H460 > 61.2 µM | UACC-257 > 100 µM | IGROV-1 > 100 µM | ACHN > 100 µM | M14 > 100 µM | EKVX > 100 µM | CAKI-1 > 100 µM | KM12 > 100 µM | U-251 > 83 µM | TK-10 > 100 µM | A549 > 100 µM | HCC 2998 > 100 µM | K562 > 63.2 µM | UACC-62 > 100 µM

COC(=O)[C@@]12C=CC(=O)[C@H]3C[C@@H](C(C(C)C)C1)[C@]32OC (stereo partly specified)
inactive: MOLT-4 > 100 µM | HT-29 > 100 µM | NCI-H460 > 100 µM | UACC-257 > 100 µM | IGROV-1 > 100 µM | ACHN > 100 µM | M14 > 100 µM | EKVX > 100 µM | CAKI-1 > 100 µM | KM12 > 100 µM | U-251 > 100 µM | TK-10 > 100 µM | A549 > 100 µM | HCC 2998 > 100 µM | K562 > 100 µM | UACC-62 > 100 µM

COc1ccc(OC)c2c(C(=O)O)c(C(C)c3ccccc3)ccc12 (stereo unspecified)
inactive: MOLT-4 > 100 µM | HT-29 > 100 µM | NCI-H460 > 100 µM | UACC-257 > 100 µM | IGROV-1 > 100 µM | ACHN > 100 µM | M14 > 100 µM | EKVX > 100 µM | CAKI-1 > 100 µM | KM12 > 100 µM | U-251 91.4 µM | TK-10 > 100 µM | A549 > 100 µM | HCC 2998 > 100 µM | K562 > 100 µM | UACC-62 > 100 µM

CC1CC2C3CCC4=CC(=O)C=CC4(C)C3(F)C(O)CC2(C)C1(O)C(=O)CO.Cc1cc(NS(=O)(=O)c2ccc(/N=N\c3cc(/N=N/c4ccc(S(=O)(=O)Nc5cc(C)nc(C)n5)cc4)c(OC(=O)C(Cl)Cl)c4cccc(NC(=O)C(Cl)Cl)c34)cc2)nc(C)n1
inactive: MOLT-4 27.4 µM | HT-29 24.4 µM | NCI-H460 25.9 µM | UACC-257 29.9 µM | IGROV-1 24.5 µM | ACHN 19.5 µM | M14 28.9 µM | EKVX 26.2 µM | CAKI-1 31.2 µM | KM12 16.6 µM | U-251 18 µM | TK-10 42.7 µM | A549 27 µM | HCC 2998 18.4 µM | K562 30.6 µM | UACC-62 23.9 µM

CC(N)C(=O)OCN1C(=O)C2C3C=CC(C2C1=O)C1C2C(=O)N(COC(=O)C(C)N)C(=O)C2C31 (stereo unspecified)
inactive: MOLT-4 21.5 µM | HT-29 34.6 µM | NCI-H460 17.6 µM | UACC-257 31.4 µM | IGROV-1 33.8 µM | ACHN 27.7 µM | M14 20.9 µM | EKVX > 100 µM | CAKI-1 72.6 µM | KM12 20.3 µM | U-251 24.5 µM | TK-10 71.6 µM | A549 32.9 µM | HCC 2998 43.1 µM | K562 24.8 µM | UACC-62 22.8 µM

Cc1cc2c(=O)cc(-c3ccc(C(=O)O)cc3)oc2c(C(=O)O)c1C
inactive: MOLT-4 > 100 µM | HT-29 > 100 µM | NCI-H460 > 100 µM | UACC-257 > 100 µM | IGROV-1 > 100 µM | ACHN > 100 µM | M14 > 100 µM | EKVX > 100 µM | CAKI-1 > 100 µM | KM12 > 100 µM | U-251 > 100 µM | TK-10 > 100 µM | A549 > 100 µM | HCC 2998 > 100 µM | K562 > 100 µM | UACC-62 > 100 µM
